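How tested: cells in 96-well plates exposed to compound for 48 hours at five concentrations. At the GI50, growth is halved. TGI marks complete inhibition of growth.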
Assays:
Assay in all cases: NCI-60 cell line screen, 48 h
786-0 renal = test system: 786-0 renal
A498 renal = test system: A498 renal
A549 NSCLC = test system: A549 NSCLC
ACHN renal = test system: ACHN renal
BT-549 breast = test system: BT-549 breast
CCRF-CEM leukemia = test system: CCRF-CEM leukemia
COLO 205 colon = test system: COLO 205 colon
DU-145 prostate = test system: DU-145 prostate
EKVX NSCLC = test system: EKVX NSCLC
HCC-2998 colon = test system: HCC-2998 colon
HCT-116 colon = test system: HCT-116 colon
HCT-15 colon = test system: HCT-15 colon
HL-60(TB) leukemia = test system: HL-60(TB) leukemia
HOP-62 NSCLC = test system: HOP-62 NSCLC
HOP-92 NSCLC = test system: HOP-92 NSCLC
HS 578T breast = test system: HS 578T breast
HT29 colon = test system: HT29 colon
IGROV1 ovarian = test system: IGROV1 ovarian
K-562 leukemia = test system: K-562 leukemia
KM12 colon = test system: KM12 colon
LOX IMVI melanoma = test system: LOX IMVI melanoma
M14 melanoma = test system: M14 melanoma
MALME-3M melanoma = test system: MALME-3M melanoma
MCF7 breast = test system: MCF7 breast
MDA-MB-231 breast = test system: MDA-MB-231 breast
MDA-MB-435 = test system: MDA-MB-435
MOLT-4 leukemia = test system: MOLT-4 leukemia
NCI-H226 lung = test system: NCI-H226 lung
NCI-H23 lung = test system: NCI-H23 lung
NCI-H460 lung = test system: NCI-H460 lung
NCI-H522 lung = test system: NCI-H522 lung
NCI/ADR-RES ovarian = test system: NCI/ADR-RES ovarian
OVCAR-3 ovarian = test system: OVCAR-3 ovarian
OVCAR-4 ovarian = test system: OVCAR-4 ovarian
OVCAR-5 ovarian = test system: OVCAR-5 ovarian
OVCAR-8 ovarian = test system: OVCAR-8 ovarian
PC-3 prostate = test system: PC-3 prostate
RPMI-8226 leukemia = test system: RPMI-8226 leukemia
RXF 393 renal = test system: RXF 393 renal
SF-268 CNS = test system: SF-268 CNS
SF-295 CNS = test system: SF-295 CNS
SF-539 CNS = test system: SF-539 CNS
SK-MEL-2 melanoma = test system: SK-MEL-2 melanoma
SK-MEL-28 melanoma = test system: SK-MEL-28 melanoma
SK-MEL-5 melanoma = test system: SK-MEL-5 melanoma
SK-OV-3 ovarian = test system: SK-OV-3 ovarian
SNB-19 CNS = test system: SNB-19 CNS
SNB-75 CNS = test system: SNB-75 CNS
SR leukemia = test system: SR leukemia
SW-620 colon = test system: SW-620 colon
T-47D breast = test system: T-47D breast
TK-10 renal = test system: TK-10 renal
U251 CNS = test system: U251 CNS
UACC-257 melanoma = test system: UACC-257 melanoma
UACC-62 melanoma = test system: UACC-62 melanoma
UO-31 renal = test system: UO-31 renal

O=c1/c(=C\c2ccc(Br)cc2)sc2n1C(c1ccc(Br)cc1)C1=C(N=2)c2ccc3ccccc3c2OCC1 (configuration not stated)
GI50 (786-0 renal): > 100 µM
TGI (786-0 renal): > 100 µM
GI50 (A498 renal): > 100 µM
TGI (A498 renal): > 100 µM
GI50 (A549 NSCLC): > 100 µM
TGI (A549 NSCLC): > 100 µM
GI50 (ACHN renal): > 100 µM
TGI (ACHN renal): > 100 µM
GI50 (BT-549 breast): > 100 µM
TGI (BT-549 breast): > 100 µM
GI50 (CCRF-CEM leukemia): > 100 µM
TGI (CCRF-CEM leukemia): > 100 µM
GI50 (COLO 205 colon): > 100 µM
TGI (COLO 205 colon): > 100 µM
GI50 (DU-145 prostate): > 100 µM
TGI (DU-145 prostate): > 100 µM
GI50 (EKVX NSCLC): > 100 µM
TGI (EKVX NSCLC): > 100 µM
GI50 (HCC-2998 colon): > 100 µM
TGI (HCC-2998 colon): > 100 µM
GI50 (HCT-116 colon): > 100 µM
TGI (HCT-116 colon): > 100 µM
GI50 (HCT-15 colon): > 100 µM
TGI (HCT-15 colon): > 100 µM
GI50 (HL-60(TB) leukemia): > 100 µM
TGI (HL-60(TB) leukemia): > 100 µM
GI50 (HOP-62 NSCLC): > 100 µM
TGI (HOP-62 NSCLC): > 100 µM
GI50 (HOP-92 NSCLC): > 100 µM
TGI (HOP-92 NSCLC): > 100 µM
GI50 (HS 578T breast): > 100 µM
TGI (HS 578T breast): > 100 µM
GI50 (HT29 colon): > 100 µM
TGI (HT29 colon): > 100 µM
GI50 (IGROV1 ovarian): > 100 µM
TGI (IGROV1 ovarian): > 100 µM
GI50 (K-562 leukemia): > 100 µM
TGI (K-562 leukemia): > 100 µM
GI50 (KM12 colon): > 100 µM
TGI (KM12 colon): > 100 µM
GI50 (LOX IMVI melanoma): > 100 µM
TGI (LOX IMVI melanoma): > 100 µM
GI50 (M14 melanoma): > 100 µM
TGI (M14 melanoma): > 100 µM
GI50 (MALME-3M melanoma): > 100 µM
TGI (MALME-3M melanoma): > 100 µM
GI50 (MCF7 breast): > 100 µM
TGI (MCF7 breast): > 100 µM
GI50 (MDA-MB-231 breast): > 100 µM
TGI (MDA-MB-231 breast): > 100 µM
GI50 (MDA-MB-435): > 100 µM
TGI (MDA-MB-435): > 100 µM
GI50 (MOLT-4 leukemia): > 100 µM
TGI (MOLT-4 leukemia): > 100 µM
GI50 (NCI-H226 lung): > 100 µM
TGI (NCI-H226 lung): > 100 µM
GI50 (NCI-H23 lung): > 100 µM
TGI (NCI-H23 lung): > 100 µM
GI50 (NCI-H460 lung): > 100 µM
TGI (NCI-H460 lung): > 100 µM
GI50 (NCI-H522 lung): > 100 µM
TGI (NCI-H522 lung): > 100 µM
GI50 (NCI/ADR-RES ovarian): > 100 µM
TGI (NCI/ADR-RES ovarian): > 100 µM
GI50 (OVCAR-3 ovarian): > 100 µM
TGI (OVCAR-3 ovarian): > 100 µM
GI50 (OVCAR-4 ovarian): > 100 µM
TGI (OVCAR-4 ovarian): > 100 µM
GI50 (OVCAR-5 ovarian): > 100 µM
TGI (OVCAR-5 ovarian): > 100 µM
GI50 (OVCAR-8 ovarian): > 100 µM
TGI (OVCAR-8 ovarian): > 100 µM
GI50 (PC-3 prostate): > 100 µM
TGI (PC-3 prostate): > 100 µM
GI50 (RPMI-8226 leukemia): > 100 µM
TGI (RPMI-8226 leukemia): > 100 µM
GI50 (RXF 393 renal): > 100 µM
TGI (RXF 393 renal): > 100 µM
GI50 (SF-268 CNS): > 100 µM
TGI (SF-268 CNS): > 100 µM
GI50 (SF-295 CNS): > 100 µM
TGI (SF-295 CNS): > 100 µM
GI50 (SF-539 CNS): > 100 µM
TGI (SF-539 CNS): > 100 µM
GI50 (SK-MEL-2 melanoma): > 100 µM
TGI (SK-MEL-2 melanoma): > 100 µM
GI50 (SK-MEL-28 melanoma): > 100 µM
TGI (SK-MEL-28 melanoma): > 100 µM
GI50 (SK-MEL-5 melanoma): > 100 µM
TGI (SK-MEL-5 melanoma): > 100 µM
GI50 (SK-OV-3 ovarian): > 100 µM
TGI (SK-OV-3 ovarian): > 100 µM
GI50 (SNB-19 CNS): > 100 µM
TGI (SNB-19 CNS): > 100 µM
GI50 (SNB-75 CNS): > 100 µM
TGI (SNB-75 CNS): > 100 µM
GI50 (SR leukemia): 35.4 µM
TGI (SR leukemia): > 100 µM
GI50 (SW-620 colon): > 100 µM
TGI (SW-620 colon): > 100 µM
GI50 (T-47D breast): > 100 µM
TGI (T-47D breast): > 100 µM
GI50 (TK-10 renal): > 100 µM
TGI (TK-10 renal): > 100 µM
GI50 (U251 CNS): > 100 µM
TGI (U251 CNS): > 100 µM
GI50 (UACC-257 melanoma): > 100 µM
TGI (UACC-257 melanoma): > 100 µM
GI50 (UACC-62 melanoma): > 100 µM
TGI (UACC-62 melanoma): > 100 µM
GI50 (UO-31 renal): > 100 µM
TGI (UO-31 renal): > 100 µM
